Measurements from patent publication US20090209568A1, “Spiro [Benzopyran] or Spiro [Benzofuran] Derivatives Which Inhibit the Sigma Receptor” (priority 2006, published 2009).

Columns and labels:
σ1-receptor = molecular target: T1, σ1-receptor (Cavia porcellus, UniProt Q60492); experiment: Sigma-1 receptor radioligand binding, [3H](+)pentazocine (Version A / Version B); design: species or system guinea pig; settings: guinea pig brain membranes; for inhibition at 0.1 µM: compound 10^−7 M; for inhibition at 0.01 µM: compound 10^−8 M
T1 construct: guinea pig brains were homogenized in 10 vols; (w/v) of Tris-HCl 50 mM 0.32 M sucrose; from tissue; host or cells: guinea pig brain membranes
Procedure: Brain membrane preparation and binding assays for the σ1-receptor were performed as described (DeHaven-Hudkins et al., 1992) with some modifications. In brief, guinea pig brains were homogenized in 10 vols. (w/v) of Tris-HCl 50 mM 0.32 M sucrose, pH 7.4, with a Kinematica Polytron PT 3000 at 15000 r.p.m. for 30 s. The homogenate was centrifuged at 1000 g for 10 min at 4° C. and the supernatants collected and centrifuged again at 48000 g for 15 min at 4° C. The pellet was resuspended in 10 volumes of Tris-HCl buffer (50 mM, pH 7.4), incubated at 37° C. for 30 min, and centrifuged at 48000 g for 20 min at 4° C. Following this, the pellet was resuspended in fresh Tris-HCl buffer (50 mM, pH 7.4) and stored on ice until use.
Each assay tube contained 10 μL of [^3H](+)pentazocine (final concentration of 0.5 nM), 900 μL of the tissue suspension to a final assay volume of 1 mL and a final tissue concentration of approximately 30 mg tissue net weight/mL. Non-specific binding was defined by addition of a final concentration of 1 μM haloperidol. All tubes were incubated at 37° C. for 150 min before termination of the reaction by rapid filtration over Schleicher & Schuell GF 3362 glass fibre filters [previously soaked in a solution of 0.5% polyethylenimine for at least 1 h]. Filters were then washed with four times with 4 mL of cold Tris-HCl buffer (50 mM, pH 7.4). Following addition of scintillation cocktail, the samples were allowed to equilibrate overnight. The amount of bound radioactivity was determined by liquid scintillation spectrometry using a Wallac Winspectral 1414 liquid scintillation counter. Protein concentrations were determined by the method of Lowry et al. (1951).
In brief the σ1-receptor preparation was prepared from guinea pig brain. The brains were homogenized in 5 to 6 times of volume sucrose solution (0.32M) and homogenized. The homogenate was centrifuged at 2900 rpm, 4° C., 10 min). the supernatant was centrifuged again (23500×g, 4° C., 20 min). The pellet was resuspended in Tris-buffer, incubated for 30 min at room temperature and centrifuged f (23500×g, 4° C., 20 min). The pellet was resuspended in cold TRIS-buffer and homogenized. Then the protein content was measured (approx. 1.5 mg/mL) and the homogenate frozen at −80° C. for later use.
The radioligand used was [^3H]-(+)-Pentazocin in TRIS-buffer. In a volume of 200 μL 50 μL TRIS-buffer, 50 μL compound solution of varying concentration, 50 μL radioligand-solution (8 nM; resulting in 2 nM in the assay) and finally 50 μL of receptor preparation (approx. 1.5 mg/mL) were given into a well of a microplate equipped with a filter. The plate was closed and stirred for 2.5 h at 37° C. and 500 rpm. Following that the solvents were removed by a harvester through the filter. After rinsing with H2O the filter was measured in a scintillation counter ([^3H]-protocol).

[1] = tested on: capsaicin-induced mechanical allodynia; experiment: Effect on capsaicin in development of mechanical allodynia (von Frey filaments); assay type: in vivo; settings: 16 mg/kg i.p., mice, 1 μg capsaicin into paw, von Frey mechanical stimulus
Procedure: This model uses the von-Frey Filaments and is a model to test the effects or symptoms of neuropathic pain, allodynia etc. […] The test protocol for all tests with von Frey filaments: After habituation mice were first treated with the test-compound (or solvent in controls). Then 1 μg capsaicin (1% DMSO) is injected into their paw resulting in developing pain in the effected paw. The effected paw is then treated with a mechanical stimulus and the latency time before the paw is withdrawn is measured.

T1 sequence (Q60492 whole entry): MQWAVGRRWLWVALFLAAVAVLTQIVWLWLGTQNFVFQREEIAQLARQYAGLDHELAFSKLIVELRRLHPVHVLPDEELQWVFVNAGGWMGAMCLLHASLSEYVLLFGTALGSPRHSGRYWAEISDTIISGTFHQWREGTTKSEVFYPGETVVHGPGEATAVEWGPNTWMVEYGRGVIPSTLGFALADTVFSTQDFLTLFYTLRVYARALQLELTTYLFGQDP

inhibition at 0.1 µM (σ1-receptor) | inhibition at 0.01 µM (σ1-receptor) | SMILES | % of pain relief [1]
52% | 29% | CCCCN1CCC2(C1)OC(OC)Cc1ccccc12 (mixture of isomers) [Example 22, cis/trans-1′-Butyl-3-methoxy-3,4-dihydrospiro[[2]benzopyran-1,3′-pyrrolidin]] | 45.67±9.62%
88% | 22.2% | COC1OC2(CCN(Cc3ccccc3)C2)c2ccccc21 (mixture of isomers) [Example 25, cis/trans-1′-Benzyl-3-methoxy-3H-spiro[[2]benzofuran-1,3′-pyrrolidin]] | 44.28±9.49%
